Laboratory results reported in patent US11331304B2, “YAP1 inhibitors and methods” (The Jackson Laboratory, priority 2016, dated 2022).

Key:
[1] = Solubility of verteporfin derivative compounds in water and buffer (pH = 2); format: physicochemical; conditions: for Buffer (pH = 2) result, fraction dissolved / Buffer (pH = 2) result: phosphate buffer pH = 2; for Water result: at the amount per volume in mg/mL
[2] = tested on: mouse medulloblastoma cells; assay: IC50 / viability (Cell Titer Blue) in mouse medulloblastoma tumorsphere cell line; format: cell-based; conditions: FIGS. 9-11
Experimental: Uptake was calculated by measuring relative fluorescence in two different primary medulloblastoma cell lines. Absorbance measurements were normalized to t=0 with drugs in the well, the drugs were washed out 30 minutes later, and absorbance was measured again. FIG. 9B) IC50 in a mouse medulloblastoma tumorsphere cell line treated with verteporfin or a verteporfin derivative compound (T10, T11, T13, T14, or T15). DMSO was used as a control.
Primary cells from spontaneous mouse medulloblastoma ([…];p53^−/− or FSMO;GFAPcre) and MED311 PDX model were isolated and cultured in serum-free stem cell medium (DMEM/F12, B27, pen/strep, bFGF9 10 nanograms per milliliter (ng/mL)), and EGF (20 ng/mL). Number of self-renewing stem cells in vitro were measured by plating single cells at a clonal density (<1 cell/μL) and counting spheres >100 μM 7 days later. To establish IC50 values, 3000 mouse medulloblastoma cells were plated in 96 wells and treated varying concentrations of verteporfin and new derivatives were synthesized, in triplicate, and viability was measured using Cell Titer Blue assay (Promega, Madison, Wis.) 3 days after drug treatment.

Buffer (pH = 2) result, fraction dissolved [1] [%] | Water result [1] | Buffer (pH = 2) result [1] | solubility compared to VP [1] | Compound | activity / potency compared to VP [2]
~20 | insoluble |  |  | C=Cc1c(C)c2cc3nc(cc4[nH]c(cc5nc(cc1[nH]2)C(C)=C5CCC(=O)N[C@@H](CC(=O)O)C(=O)O)c(CCC(=O)OC)c4C)[C@@]1(C)C3=CC=C(C(=O)OC)[C@H]1C(=O)OC [Compound T1, (2S)-2-[3-[(23 S,24R)-14-ethenyl-5-(3-methoxy-3-oxopropyl)-22,23-bis(methoxycarbonyl)-4,10,15,24-tetramethyl-25,26,27,28-tetraazahexacyclo[16.6.1.13,6.18,11.113,16.019,24]octacosa-1,3,5,7,9,11(27),12,14,16,18(25), 19,21-dodecaen-9-yl]propanoylamino]butanedioic acid] | 
 | insoluble | insoluble |  | C=Cc1c(C)c2cc3nc(cc4[nH]c(cc5nc(cc1[nH]2)C(C)=C5CCC(=O)N[C@@H](CC(=O)O)C(=O)O)c(CCC(=O)N[C@@H](CC(=O)O)C(=O)O)c4C)[C@@]1(C)C3=CC=C(C(=O)OC)[C@H]1C(=O)OC [Compound T3, (2S)-2-[3-[(23 S,24R)-14-ethenyl-5-[3-[[(1 S)-1,2-dicarboxyethyl]amino]-3-oxo-propyl]-22,23-bis(methoxycarbonyl)-4,10,15,24-tetramethyl-25,26,27,28-tetraazahexacyclo[16.6.1.13,6.18,11.113,16.019,24]octacosa-1,3,5,7,9,11(27),12,14,16,18(25), 19,21-dodecaen-9-yl]propanoylamino]butanedioic acid] | 
~80 | insoluble |  |  | C=Cc1c(C)c2cc3nc(cc4[nH]c(cc5nc(cc1[nH]2)C(C)=C5CCC(=O)NCCC(=O)N[C@@H](CC(=O)O)C(=O)O)c(CCC(=O)OC)c4C)[C@@]1(C)C3=CC=C(C(=O)OC)[C@H]1C(=O)OC [Compound T4, (2S)-2-[3-[3-[(23 S,24R)-14-ethenyl-5-(3-methoxy-3-oxopropyl)-22,23-bis(methoxycarbonyl)-4,10,15,24-tetramethyl-25,26,27,28-tetraazahexacyclo[16.6.1.13,6.18,11.113,16.019,24]octacosa-1,3,5,7,9,11(27),12,14,16,18(25), 19,21-dodecaen-9-yl]propanoylamino]propanoylamino]butanedioic acid] | 
 | soluble | soluble |  | C=Cc1c(C)c2cc3nc(cc4[nH]c(cc5nc(cc1[nH]2)C(C)=C5CCC(=O)NCCCC[C@H](N)C(=O)O)c(CCC(=O)OC)c4C)[C@@]1(C)C3=CC=C(C(=O)OC)[C@H]1C(=O)OC [Compound T5, (2S)-2-amino-6-[3-[(23 S,24R)-14-ethenyl-5-(3-methoxy-3-oxopropyl)-22,23-bis(methoxycarbonyl)-4,10,15,24-tetramethyl-25,26,27,28-tetraazahexacyclo[16.6.1.13,6.18,11.113,16.019,24]octacosa-1,3,5,7,9,11(27),12,14,16,18(25), 19,21-dodecaen-9-yl]propanoylamino]hexanoic acid] | 
 | soluble | soluble |  | C=Cc1c(C)c2cc3nc(cc4[nH]c(cc5nc(cc1[nH]2)C(C)=C5CCC(=O)NCCCC[C@H](N)C(=O)O)c(CCC(=O)NCCCC[C@H](N)C(=O)O)c4C)[C@@]1(C)C3=CC=C(C(=O)OC)[C@H]1C(=O)OC [Compound T7, (2S)-2-amino-6-[3-[(23 S,24R)-14-ethenyl-5-[3-[[(5 S)-5-amino-5-carboxy-pentyl]amino]-3-oxo-propyl]-22,23-bis(methoxycarbonyl)-4,10,15,24-tetramethyl-25,26,27,28-tetraazahexacyclo[16.6.1.13,6.18,11.113,16.019,24]octacosa-1,3,5,7,9,11(27),12,14,16,18(25), 19,21-dodecaen-9-yl]propanoylamino]hexanoic acid] | 
 |  |  | more soluble | C=Cc1c(C)c2cc3nc(cc4[nH]c(cc5nc(cc1[nH]2)C(C)=C5CCC(=O)NCCN(C)C)c(CCC(=O)NCCN(C)C)c4C)[C@@]1(C)C3=CC=C(C(=O)OC)[C@H]1C(=O)OC [Compound T13, N-[2-(dimethylamino)ethyl]-3-[(23 S,24R)-14-ethenyl-5-[3-[2-(dimethylamino)ethylamino]-3-oxo-propyl]-22,23-bis(methoxycarbonyl)-4,10,15,24-tetramethyl-25,26,27,28-tetraazahexacyclo[16.6.1.13,6.18,11.113,16.019,24]octacosa-1,3,5,7,9,11(27), 12,14,16,18(25), 19,21-dodecaen-9-yl]propanamide] | more soluble and potent than VP

Further lines, the compound ahead of its results:

Compound | Buffer (pH = 2) result, fraction dissolved [1] [%] | Water result [1] | Buffer (pH = 2) result [1] | solubility compared to VP [1] | activity / potency compared to VP [2]
C=Cc1c(C)c2cc3nc(cc4[nH]c(cc5nc(cc1[nH]2)C(C)=C5CCC(=O)OCCOCCOCCOC)c(CCC(=O)OC)c4C)[C@@]1(C)C3=CC=C(C(=O)OC)[C@H]1C(=O)OC [Compound T8, Methyl 3-[(23S,24R)-14-ethenyl-9-[3-[2-[2-(2-methoxyethoxy)ethoxy]ethoxy]-3-oxo-propyl]-22,23-bis(methoxycarbonyl)-4,10,15,24-tetramethyl-25,26,27,28-tetraazahexacyclo[16.6.1.13,6.18,11.113,16.019,24]octacosa-1,3,5,7,9,11(27),12,14,16,18(25), 19,21-dodecaen-5-yl]propanoate] |  | insoluble | insoluble |  | 
C=Cc1c(C)c2cc3nc(cc4[nH]c(cc5nc(cc1[nH]2)C(C)=C5CCC(=O)OCCOCCOCCOC)c(CCC(=O)OCCOCCOCCOC)c4C)[C@@]1(C)C3=CC=C(C(=O)OC)[C@H]1C(=O)OC [Compound T9, 2-[2-(2-methoxyethoxy)ethoxy]ethyl 3-[(23 S,24R)-14-ethenyl-5-[3-[2-[2-(2-methoxyethoxy)ethoxy]ethoxy]-3-oxo-propyl]-22,23-bis(methoxycarbonyl)-4,10,15,24-tetramethyl-25,26,27,28-tetraazahexacyclo[16.6.1.13,6.18,11.113,16.019,24]octacosa-1,3,5,7,9,11(27),12,14,16,18(25), 19,21-dodecaen-9-yl]propanoate] |  |  |  | decreased solubility | decreased solubility and activity
C=Cc1c(C)c2cc3nc(cc4[nH]c(cc5nc(cc1[nH]2)C(C)=C5CCC(=O)OCCOCCOCCOCCOCCOCCOCCOC)c(CCC(=O)OC)c4C)[C@@]1(C)C3=CC=C(C(=O)OC)[C@H]1C(=O)OC [Compound T10, Methyl 3-[(23S,24R)-14-ethenyl-9-[3-[2-[2-[2-[2-[2-[2-(2-methoxyethoxy)ethoxy]ethoxy]ethoxy]ethoxy]ethoxy]ethoxy]-3-oxo-propyl]-22,23-bis(methoxycarbonyl)-4,10,15,24-tetramethyl-25,26,27,28-tetraazahexacyclo[16.6.1.13,6.18,11.113,16.019,24]octacosa-1,3,5,7,9,11(27),12,14,16,18(25), 19,21-dodecaen-5-yl]propanoate] |  | insoluble | insoluble |  | 
C=Cc1c(C)c2cc3nc(cc4[nH]c(cc5nc(cc1[nH]2)C(C)=C5CCC(=O)NCCN(C)C)c(CCC(=O)OC)c4C)[C@@]1(C)C3=CC=C(C(=O)OC)[C@H]1C(=O)OC [Compound T11, Methyl 3-[(23 S,24R)-14-ethenyl-9-[3-[2-(dimethylamino)ethylamino]-3-oxo-propyl]-22,23-bis(methoxycarbonyl)-4,10,15,24-tetramethyl-25,26,27,28-tetraazahexacyclo[16.6.1.13,6.18,11.113,16.019,24]octacosa-1,3,5,7,9,11(27), 12,14,16,18(25), 19,21-dodecaen-5-yl]propanoate] | ~70 | insoluble |  |  | 
C=Cc1c(C)c2cc3nc(cc4[nH]c(cc5nc(cc1[nH]2)C(C)=C5CCC(=O)N(C)CCN(C)C)c(CCC(=O)OC)c4C)[C@@]1(C)C3=CC=C(C(=O)OC)[C@H]1C(=O)OC [Compound T14, Methyl 3-[(23S,24R)-14-ethenyl-9-[3-[2-(dimethylamino)ethyl-methyl-amino]-3-oxo-propyl]-22,23-bis(methoxycarbonyl)-4,10,15,24-tetramethyl-25,26,27,28-tetraazahexacyclo[16.6.1.13,6.18,11.113,16.019,24]octacosa-1,3,5,7,9,11(27), 12,14,16,18(25), 19,21-dodecaen-5-yl]propanoate] |  | insoluble | soluble |  | 
C=Cc1c(C)c2cc3nc(cc4[nH]c(cc5nc(cc1[nH]2)C(C)=C5CCC(=O)N(C)CCN(C)C)c(CCC(=O)N(C)CCN(C)C)c4C)[C@@]1(C)C3=CC=C(C(=O)OC)[C@H]1C(=O)OC [Compound T15, N-[2-(dimethylamino)ethyl]-3-[(23 S,24R)-14-ethenyl-5-[3-[2-(dimethylamino)ethyl-methyl-amino]-3-oxo-propyl]-22,23-bis(methoxycarbonyl)-4,10,15,24-tetramethyl-25,26,27,28-tetraazahexacyclo[16.6.1.13,6.18,11.113,16.019,24]octacosa-1,3,5,7,9,11(27), 12,14,16,18(25),19,21-dodecaen-9-yl]-N-methyl-propanamide] |  | soluble | soluble |  | 
